US12527325B2, “Pesticidally active diazine-amide compounds” (SYNGENTA CROP PROTECTION AG, priority 2019, dated 2026)

Tests used:
Assay type in all cases: in vivo
Euschistus heros = assay: Example B2: Euschistus heros (Neotropical Brown Stink Bug); settings: 120 h, application rate of 200 ppm, sprayed soybean leaves, N2 nymphs, 5 days after infestation, read-out: control in at least one of the two categories (mortality or growth inhibition)
Method: Example B2: Euschistus heros (Neotropical Brown Stink Bug)
Soybean leaves on agar in 24-well microtiter plates were sprayed with aqueous test solutions prepared from 10′000 ppm DMSO stock solutions. After drying the leaves were infested with N2 nymphs. The samples were assessed for mortality and growth inhibition in comparison to untreated samples 5 days after infestation.

Diabrotica balteata = assay: Example B1: Diabrotica balteata (Corn Root Worm); settings: 96 h, application rate of 200 ppm, sprayed maize sprouts, L2 larvae, 4 days after infestation, read-out: control in at least one of the two categories (mortality or growth inhibition)
Method: Example B1: Diabrotica balteata (Corn Root Worm)
Maize sprouts placed onto an agar layer in 24-well microtiter plates were treated with aqueous test solutions prepared from 10′000 ppm DMSO stock solutions by spraying. After drying, the plates were infested with L2 larvae (6 to 10 per well). The samples were assessed for mortality and growth inhibition in comparison to untreated samples 4 days after infestation.

Plutella xylostella [1] = assay: Example B5: Plutella xylostella (Diamond Back Moth); settings: 192 h, application rate of 200 ppm, 24-well artificial diet, eggs, 8 days after infestation, read-out: control in at least one of the two categories (mortality or growth inhibition)
Method: Example B5: Plutella xylostella (Diamond Back Moth)
24-well microtiter plates with artificial diet were treated with aqueous test solutions prepared from 10′000 ppm DMSO stock solutions by pipetting. After drying, Plutella eggs were pipetted through a plastic stencil onto a gel blotting paper and the plate was closed with it. The samples were assessed for mortality and growth inhibition in comparison to untreated samples 8 days after infestation.

Chilo suppressalis = assay: Example B4: Chilo suppressalis (Striped Rice Stemborer); settings: 144 h, application rate of 200 ppm, artificial diet, L2 larvae, 6 days after infestation, read-out: control in at least one of the three categories (mortality, anti-feedant or growth inhibition)
Method: Example B4: Chilo suppressalis (Striped Rice Stemborer)
24-well microtiter plates with artificial diet were treated with aqueous test solutions prepared from 10′000 ppm DMSO stock solutions by pipetting. After drying, the plates were infested with L2 larvae (6-8 per well). The samples were assessed for mortality, anti-feeding effect, and growth inhibition in comparison to untreated samples 6 days after infestation. Control of Chilo suppressalis by a test sample is given when at least one of the categories mortality, anti-feedant effect, and growth inhibition is higher than the untreated sample.

Spodoptera littoralis = assay: Example B9: Spodoptera littoralis (Egyptian Cotton Leaf Worm), cotton leaf disc spray; settings: foliar, 72 h, application rate of 200 ppm, sprayed cotton leaf discs, L1 larvae, 3 days after infestation, read-out: control in at least one of the three categories (mortality, anti-feedant or growth inhibition)
Plutella xylostella [2] = assay: Example B12: Plutella xylostella (Diamondback Moth), 96-well artificial diet; settings: 216 h, application rate of 500 ppm, eggs, 9 days after infestation
Method: Example B12: Plutella xylostella (Diamondback Moth)
96-well microtiter plates containing artificial diet were treated with aqueous test solutions, prepared from 10′000 ppm DMSO stock solutions, by a liquid handling robot. After drying, eggs (˜30 per well) were infested onto a netted lid which was suspended above the diet. The eggs hatch and L1 larvae move down to the diet. The samples were assessed for mortality 9 days after infestation.

Myzus persicae [3] = assay: Example B11: Myzus persicae (Green Peach Aphid), 96-well sucrose solution; settings: 120 h, application rate of 50 ppm, 96-well sucrose solution under Parafilm, 5 days after infestation
Description: Example B11: Myzus persicae (Green Peach Aphid)
Test compounds prepared from 10′000 ppm DMSO stock solutions were applied by a liquid handling robot into 96-well microtiter plates and mixed with a sucrose solution. Parafilm was stretched over the 96-well microtiter plate and a plastic stencil with 96 holes was placed onto the plate. Aphids were sieved into the wells directly onto the Parafilm. The infested plates were closed with a gel blotting card and a second plastic stencil and then turned upside down. The samples were assessed for mortality 5 days after infestation.

Myzus persicae [4] = assay: Example B8: Myzus persicae (Green Peach Aphid): Intrinsic Activity; settings: 120 h, test rate of 12 ppm, 24-well sucrose solution under Parafilm, 5 days after infestation
Description: Example B8: Myzus persicae (Green Peach Aphid): Intrinsic Activity
Test compounds prepared from 10′000 ppm DMSO stock solutions were applied by pipette into 24-well microtiter plates and mixed with sucrose solution. The plates were closed with a stretched Parafilm. A plastic stencil with 24 holes was placed onto the plate and infested pea seedlings were placed directly on the Parafilm. The infested plate was closed with a gel blotting paper and another plastic stencil and then turned upside down. The samples were assessed for mortality 5 days after infestation.

Myzus persicae [5] = assay: Example B7: Myzus persicae (Green Peach Aphid): Systemic Activity; settings: 144 h, test rate of 24 ppm, roots of pea seedlings in test solution, 6 days
Method: Example B7: Myzus persicae (Green Peach Aphid): Systemic Activity
Roots of pea seedlings infested with an aphid population of mixed ages were placed directly into aqueous test solutions prepared from 10′000 DMSO stock solutions. The samples were assessed for mortality 6 days after placing seedlings into test solutions.

CC(NC(=O)c1cc(Cl)nc(C(F)(F)F)c1)c1nccnc1-c1ncccn1 (stereo not drawn) [P1, 2-chloro-N-[1-(3-pyrimidin-2-ylpyrazin-2-yl)ethyl]-6-(trifluoromethyl)pyridine-4-carboxamide]
≥ 80%: percent control (mortality or growth inhibition) at 200 ppm (Euschistus heros) | percent control (mortality or growth inhibition) at 200 ppm (Diabrotica balteata) | percent control (mortality or growth inhibition) at 200 ppm (Plutella xylostella [1]) | percent control (mortality, anti-feedant effect or growth inhibition) at 200 ppm (Chilo suppressalis)

Cc1cnc(-c2nccnc2C(C)NC(=O)c2cc(C(F)(F)F)nc(C3(C#N)CC3)c2)nc1 (stereo not drawn) [P2, 2-(1-cyanocyclopropyl)-N-[1-[3-(5-methylpyrimidin-2-yl)pyrazin-2-yl]ethyl]-6-(trifluoromethyl)pyridine-4-carboxamide]
≥ 80%: percent control (mortality or growth inhibition) at 200 ppm (Euschistus heros) | percent control (mortality, anti-feedant effect or growth inhibition) at 200 ppm (Spodoptera littoralis) | percent control (mortality or growth inhibition) at 200 ppm (Plutella xylostella [1]) | percent control (mortality, anti-feedant effect or growth inhibition) at 200 ppm (Chilo suppressalis)

CC(NC(=O)c1cc(C(F)(F)F)cc(C2(C#N)CC2)c1)c1nccnc1-c1ncc(C2CC2)cn1 (stereo not drawn) [P3, 3-(1-cyanocyclopropyl)-N-[1-[3-(5-cyclopropylpyrimidin-2-yl)pyrazin-2-yl]ethyl]-5-(trifluoromethyl) benzamide]
≥ 80%: percent control (mortality or growth inhibition) at 200 ppm (Euschistus heros) | percent control (mortality, anti-feedant effect or growth inhibition) at 200 ppm (Spodoptera littoralis) | percent control (mortality or growth inhibition) at 200 ppm (Plutella xylostella [1]) | percent control (mortality, anti-feedant effect or growth inhibition) at 200 ppm (Chilo suppressalis)

CC(NC(=O)c1cc(C(F)(F)F)cc(C(F)(F)C2CC2)c1)c1nccnc1-c1ccc(Br)cn1 (stereo not drawn) [P21, N-[1-[3-(5-bromo-2-pyridyl)pyrazin-2-yl]ethyl]-3-[cyclopropyl(difluoro)methyl]-5-(trifluoromethyl) benzamide]
≥ 80%: percent control (mortality or growth inhibition) at 200 ppm (Euschistus heros) | mortality at 500 ppm (Plutella xylostella [2]) | percent control (mortality or growth inhibition) at 200 ppm (Plutella xylostella [1])

CC(NC(=O)c1cc(C(F)(F)F)cc(C2(C#N)CC2)c1)c1nccnc1-c1ccc(F)cn1 (stereo not drawn) [P23, 3-(1-cyanocyclopropyl)-N-[1-[3-(5-fluoro-2-pyridyl)pyrazin-2-yl]ethyl]-5-(trifluoromethyl) benzamide]
≥ 80%: mortality at 500 ppm (Plutella xylostella [2]) | mortality at 50 ppm (Myzus persicae [3]) | percent control (mortality or growth inhibition) at 200 ppm (Plutella xylostella [1])

CC(NC(=O)c1cc(C(F)(F)F)cc(C(F)(F)C2CC2)c1)c1nccnc1-c1ncccn1 (stereo not drawn) [P30, 3-[cyclopropyl(difluoro)methyl]-N-[1-(3-pyrimidin-2-ylpyrazin-2-yl)ethyl]-5-(trifluoromethyl)benzamide]
≥ 80%: percent control (mortality or growth inhibition) at 200 ppm (Euschistus heros) | percent control (mortality, anti-feedant effect or growth inhibition) at 200 ppm (Spodoptera littoralis) | percent control (mortality or growth inhibition) at 200 ppm (Diabrotica balteata) | mortality at 12 ppm (Myzus persicae [4]) | percent control (mortality or growth inhibition) at 200 ppm (Plutella xylostella [1]) | percent control (mortality, anti-feedant effect or growth inhibition) at 200 ppm (Chilo suppressalis)

CC(NC(=O)c1cc(C2CC2C(F)(F)F)cc(C(F)(F)F)c1)c1nccnc1-c1ncccn1 (stereo not drawn) [P37, N-[1-(3-pyrimidin-2-ylpyrazin-2-yl)ethyl]-3-(trifluoromethyl)-5-[2-(trifluoromethyl)cyclopropyl] benzamide]
≥ 80%: mortality at 500 ppm (Plutella xylostella [2]) | percent control (mortality, anti-feedant effect or growth inhibition) at 200 ppm (Spodoptera littoralis) | percent control (mortality or growth inhibition) at 200 ppm (Diabrotica balteata) | mortality at 12 ppm (Myzus persicae [4]) | percent control (mortality or growth inhibition) at 200 ppm (Plutella xylostella [1]) | percent control (mortality, anti-feedant effect or growth inhibition) at 200 ppm (Chilo suppressalis)

CC(NC(=O)c1cc(C2CC2)cc(C(F)(F)F)c1)c1nccnc1-c1ncccn1 (stereo not drawn) [P41, 3-cyclopropyl-N-[1-(3-pyrimidin-2-ylpyrazin-2-yl)ethyl]-5-(trifluoromethyl)benzamide]
≥ 80%: percent control (mortality, anti-feedant effect or growth inhibition) at 200 ppm (Spodoptera littoralis) | percent control (mortality or growth inhibition) at 200 ppm (Diabrotica balteata) | mortality at 12 ppm (Myzus persicae [4]) | percent control (mortality or growth inhibition) at 200 ppm (Plutella xylostella [1]) | percent control (mortality, anti-feedant effect or growth inhibition) at 200 ppm (Chilo suppressalis)

C[C@H](NC(=O)c1cc(C(F)(F)F)cc(C(F)(F)C2CC2)c1)c1nccnc1-c1ccc(Br)cn1 [P42, N-[(1S)-1-[3-(5-bromo-2-pyridyl)pyrazin-2-yl]ethyl]-3-[cyclopropyl(difluoro)methyl]-5-(trifluoromethyl)benzamide]
≥ 80%: mortality at 500 ppm (Plutella xylostella [2]) | percent control (mortality, anti-feedant effect or growth inhibition) at 200 ppm (Spodoptera littoralis) | percent control (mortality or growth inhibition) at 200 ppm (Diabrotica balteata) | percent control (mortality or growth inhibition) at 200 ppm (Plutella xylostella [1]) | percent control (mortality, anti-feedant effect or growth inhibition) at 200 ppm (Chilo suppressalis)

Cc1cnc(-c2nccnc2C(C)NC(=O)c2cc(C(F)(F)F)cc(C(C)(C)C#N)c2)nc1 (stereo not drawn) [P48, 3-(1-cyano-1-methyl-ethyl)-N-[1-[3-(5-methylpyrimidin-2-yl)pyrazin-2-yl]ethyl]-5-(trifluoromethyl)benzamide]
≥ 80%: percent control (mortality or growth inhibition) at 200 ppm (Euschistus heros) | percent control (mortality, anti-feedant effect or growth inhibition) at 200 ppm (Spodoptera littoralis) | percent control (mortality or growth inhibition) at 200 ppm (Plutella xylostella [1]) | percent control (mortality, anti-feedant effect or growth inhibition) at 200 ppm (Chilo suppressalis)

CC(NC(=O)c1cc(C(F)(F)F)cc(C(C)(C)C#N)c1)c1nccnc1-c1ncccn1 (stereo not drawn) [P50, 3-(1-cyano-1-methyl-ethyl)-N-[1-(3-pyrimidin-2-ylpyrazin-2-yl)ethyl]-5-(trifluoromethyl)benzamide]
≥ 80%: percent control (mortality or growth inhibition) at 200 ppm (Euschistus heros) | percent control (mortality, anti-feedant effect or growth inhibition) at 200 ppm (Spodoptera littoralis) | mortality at 24 ppm (Myzus persicae [5]) | percent control (mortality or growth inhibition) at 200 ppm (Diabrotica balteata) | mortality at 12 ppm (Myzus persicae [4]) | percent control (mortality or growth inhibition) at 200 ppm (Plutella xylostella [1]) | percent control (mortality, anti-feedant effect or growth inhibition) at 200 ppm (Chilo suppressalis)

CC(NC(=O)c1cc(C(F)(F)F)nc(C2(C#N)CC2)c1)c1nccnc1-c1ncc(Br)cn1 (stereo not drawn) [P55, N-[1-[3-(5-bromopyrimidin-2-yl)pyrazin-2-yl]ethyl]-2-(1-cyanocyclopropyl)-6-(trifluoromethyl)pyridine-4-carboxamide]
≥ 80%: percent control (mortality or growth inhibition) at 200 ppm (Euschistus heros) | percent control (mortality, anti-feedant effect or growth inhibition) at 200 ppm (Spodoptera littoralis) | percent control (mortality or growth inhibition) at 200 ppm (Diabrotica balteata) | mortality at 12 ppm (Myzus persicae [4]) | percent control (mortality or growth inhibition) at 200 ppm (Plutella xylostella [1]) | percent control (mortality, anti-feedant effect or growth inhibition) at 200 ppm (Chilo suppressalis)
